Source: PubChem BioAssay AID2060491 (Molecular Pharmacology Branch, DTP, NCI, 2025)

System: 857933-349-R-J2-PDC complex spheroids, viability
Assay: Anticancer human tumor 857933-349-R-J2-PDC patient-derived colon adenocarcinoma cell line growth inhibition [GQUAD]
Settings: for IC50: curve of first compound; for viability, T/C: stronger effect = lower value; active = viability on the fitted dose curve at most 10% of control; inactive = the rest
Summary of the method: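 Multi-cell-type spheroids of tumor cells with HUVEC and mesenchymal stem cells, treated with drug combinations. Concentrations descend in half-log steps from near clinical Cmax, or from 10 microM where Cmax is unknown; viability read-out.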

[1] = second compound 0.0316 µM, first compound 0.0316 µM
[2] = second compound 0.0316 µM, first compound 0.1 µM
[3] = second compound 0.0316 µM, first compound 0.316 µM
[4] = second compound 0.0316 µM, first compound 1 µM
[5] = second compound 0.0316 µM, first compound 3.16 µM
[6] = second compound 0.0316 µM, first compound 10 µM
[7] = second compound 0.1 µM, first compound 0.0316 µM
[8] = second compound 0.1 µM, first compound 0.1 µM
[9] = second compound 0.1 µM, first compound 0.316 µM
[10] = second compound 0.1 µM, first compound 1 µM
[11] = second compound 0.1 µM, first compound 3.16 µM
[12] = second compound 0.1 µM, first compound 10 µM
[13] = second compound 0.316 µM, first compound 0.0316 µM
[14] = second compound 0.316 µM, first compound 0.1 µM
[15] = second compound 0.316 µM, first compound 0.316 µM
[16] = second compound 0.316 µM, first compound 1 µM
[17] = second compound 0.316 µM, first compound 3.16 µM
[18] = second compound 0.316 µM, first compound 10 µM
[19] = second compound 1 µM, first compound 0.0316 µM
[20] = second compound 1 µM, first compound 0.1 µM
[21] = second compound 1 µM, first compound 0.316 µM
[22] = second compound 1 µM, first compound 1 µM
[23] = second compound 1 µM, first compound 3.16 µM
[24] = second compound 1 µM, first compound 10 µM
[25] = second compound 3.16 µM, first compound 0.0316 µM
[26] = second compound 3.16 µM, first compound 0.1 µM
[27] = second compound 3.16 µM, first compound 0.316 µM
[28] = second compound 3.16 µM, first compound 1 µM
[29] = second compound 3.16 µM, first compound 3.16 µM
[30] = second compound 3.16 µM, first compound 10 µM
[31] = second compound 10 µM, first compound 0.0316 µM
[32] = second compound 10 µM, first compound 0.1 µM
[33] = second compound 10 µM, first compound 0.316 µM
[34] = second compound 10 µM, first compound 1 µM
[35] = second compound 10 µM, first compound 3.16 µM
[36] = second compound 10 µM, first compound 10 µM
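Also: spheroids exposed to compounds for one week before readout.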
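For viability, T/C in this document: percent viability relative to vehicle DMSO wells taken as 100%.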

CC1COCCN1c1cc(C2(S(C)(=N)=O)CC2)nc(-c2ccnc3[nH]ccc23)n1 (centres undefined) + Cc1[nH]c2ccc(F)cc2c1-c1nc2c3cccnc3c3ncccc3c2[nH]1
7.1 µM: IC50 (second compound 1 µM)
6.09 µM: IC50 (second compound 0.316 µM)
6.45 µM: IC50 (second compound 10 µM)
6.7 µM: IC50 (second compound 0.0316 µM)
7.16 µM: IC50 (second compound 3.16 µM)
inactive: viability, T/C [1] 101% | viability, T/C [2] 103% | viability, T/C [3] 88.5% | viability, T/C [4] 75.4% | viability, T/C [5] 59.6% | viability, T/C [6] 45% | viability, T/C [7] 99.9% | viability, T/C [8] 101% | viability, T/C [9] 93.3% | viability, T/C [10] 80.9% | viability, T/C [11] 58.8% | viability, T/C [12] 43% | viability, T/C [13] 106% | viability, T/C [14] 108% | viability, T/C [15] 90.2% | viability, T/C [16] 79.5% | viability, T/C [17] 58.9% | viability, T/C [18] 43.1% | viability, T/C [19] 103% | viability, T/C [20] 98.2% | viability, T/C [21] 91.9% | viability, T/C [22] 83.6% | viability, T/C [23] 59.7% | viability, T/C [24] 45.7% | viability, T/C [25] 108% | viability, T/C [26] 96.3% | viability, T/C [27] 81.2% | viability, T/C [28] 86.3% | viability, T/C [29] 60.4% | viability, T/C [30] 43.6% | viability, T/C [31] 104% | viability, T/C [32] 98.5% | viability, T/C [33] 92.5% | viability, T/C [34] 90.9% | viability, T/C [35] 62.3% | viability, T/C [36] 42.1%
6.02 µM: IC50 (second compound 0.1 µM)

COc1ccc([C@@H](O)c2cc(-c3ncnc4cc(N5CCOCC5)ccc34)c(F)cc2Cl)nn1 + Cc1[nH]c2ccc(F)cc2c1-c1nc2c3cccnc3c3ncccc3c2[nH]1
8.66 µM: IC50 (second compound 0.1 µM)
> 10 µM: IC50 (second compound 0.0316 µM) | IC50 (second compound 0.316 µM) | IC50 (second compound 1 µM) | IC50 (second compound 3.16 µM) | IC50 (second compound 10 µM)
inactive: viability, T/C [1] 124% | viability, T/C [2] 98.5% | viability, T/C [3] 99.8% | viability, T/C [4] 82.2% | viability, T/C [5] 69.9% | viability, T/C [6] 51.6% | viability, T/C [7] 107% | viability, T/C [8] 108% | viability, T/C [9] 93.5% | viability, T/C [10] 87.8% | viability, T/C [11] 64.2% | viability, T/C [12] 48.1% | viability, T/C [13] 108% | viability, T/C [14] 91.1% | viability, T/C [15] 99.1% | viability, T/C [16] 90.8% | viability, T/C [17] 71.6% | viability, T/C [18] 58.1% | viability, T/C [19] 102% | viability, T/C [20] 98.8% | viability, T/C [21] 96.3% | viability, T/C [22] 99.4% | viability, T/C [23] 71.8% | viability, T/C [24] 52.7% | viability, T/C [25] 113% | viability, T/C [26] 96.5% | viability, T/C [27] 95.1% | viability, T/C [28] 94% | viability, T/C [29] 66.1% | viability, T/C [30] 52.2% | viability, T/C [31] 105% | viability, T/C [32] 94.1% | viability, T/C [33] 91.6% | viability, T/C [34] 79.9% | viability, T/C [35] 68.6% | viability, T/C [36] 51.9%
